# Laboratory results taken from patent US7205302B2, “Heterocyclic compound derivatives and medicines” (Nippon Shinyaku Co., Ltd., priority 2001, dated 2007).
# pIC50: −log10 of the molar value. Where a name gives a salt, the structure may show the parent alone.
# Tested on: not given
# Assay: not given
# Conditions: not given
row,melting point,SMILES
1,137 to 139 °C,"O=C(O)COCCCC1CCCN1c1cnc(-c2ccccc2)c(-c2ccccc2)n1 (racemic) [Example 55, (±)-2-{3-[1-(5,6-diphenylpyrazin-2-yl)pyrrolidin-2-yl]propyloxy}acetic acid]"
2,138 to 140 °C,"O=C(O)COCCCCC1CCCN1c1cnc(-c2ccccc2)c(-c2ccccc2)n1 (racemic) [Example 57, (±)-2-{4-[1-(5,6-diphenylpyrazin-2-yl)pyrrolidin-2-yl]butyloxy}acetic acid]"
3,139 to 140 °C,"O=C(O)COCCC1CCCN(c2cnc(-c3ccccc3)c(-c3ccccc3)n2)C1 (racemic) [Example 58, (±)-2-{2-[1-(5,6-diphenylpyrazin-2-yl)piperidin-3-yl]ethoxy}acetic acid]"
4,101 to 103 °C,"O=C(O)COCCCCN(c1cnc(-c2ccccc2)c(-c2ccccc2)n1)C1CCCC1 [Example 43, 2-{4-[N-(5,6-diphenylpyrazin-2-yl)-N-cyclopentylamino]butyloxy}acetic acid]"
5,130 to 131 °C,"O=C(O)COCCCCN(c1cnc(-c2ccccc2)c(-c2ccccc2)n1)C1CCCCC1 [Example 44, 2-{4-[N-(5,6-diphenylpyrazin-2-yl)-N-cyclohexylamino]butyloxy}acetic acid]"
6,155 to 156 °C,"Cc1ccc(-c2ncc(N(CCCCOCC(=O)O)C(C)C)nc2-c2ccc(C)cc2)cc1 [Example 45, 2-{4-[N-(5,6-di-p-tolylpyrazin-2-yl)-N-isopropylamino]butyloxy}acetic acid]"
7,136 to 138 °C,"CC(C)N(CCCCOCC(=O)O)c1nc(-c2ccccc2)c(-c2ccccc2)nc1Cl [Example 47, 2-{4-[N-(3-chloro-5,6-diphenylpyrazin-2-yl)-N-isopropylamino]butyloxy}acetic acid]"
8,128 to 130 °C,"CC(C)N(CCCCOCC(=O)O)c1nnc(-c2ccccc2)c(-c2ccccc2)n1 [Example 49, 2-{4-[N-(5,6-diphenyl-1,2,4-triazin-3-yl)-N-isopropylamino]butyloxy}acetic acid]"
9,161 to 162 °C,"Cc1ccc(-c2ncc(N(C)CCCCOCC(=O)O)nc2-c2ccc(C)cc2)cc1 [Example 50, 2-{4-[N-(5,6-di-p-tolylpyrazin-2-yl)-N-methylamino]butyloxy}acetic acid]"
10,128 to 130 °C,"COc1ccc(-c2ncc(N(C)CCCCOCC(=O)O)nc2-c2ccc(OC)cc2)cc1 [Example 51, 2-[4-{N-[5,6-bis(4-methoxyphenyl)pyrazin-2-yl]-N-methylamino}butyloxy]acetic acid]"
11,116 to 118 °C,"CN(CCCCOCC(=O)O)c1cnc(-c2ccc(F)cc2)c(-c2ccc(F)cc2)n1 [Example 52, 2-[4-{N-[5,6-bis(4-fluorophenyl)pyrazin-2-yl]-N-methylamino}butyloxy]acetic acid]"
12,173 to 174 °C,"O=C(O)COCCC1CCN(c2cnc(-c3ccccc3)c(-c3ccccc3)n2)CC1 [Example 54, 2-{2-[1-(5,6-diphenylpyrazin-2-yl)piperidin-4-yl]ethoxy}acetic acid]"
13,108 to 110 °C,"CN(CCCCOCC(=O)O)c1nnc(-c2ccccc2)c(-c2ccccc2)n1 [Example 56, 2-{4-[N-(5,6-diphenyl-1,2,4-triazin-3-yl)-N-methylamino]butyloxy}acetic acid]"
14,158 to 159 °C,"CN(C[C@H](O)c1cccc(OCC(=O)O)c1)c1cnc(-c2ccccc2)c(-c2ccccc2)n1 [Example 59, (R)-(+)-2-[3-{2-[N-(5,6-diphenylpyrazin-2-yl)-N-methylamino]-1-hydroxyethyl}phenoxy]acetic acid]"
15,174 to 176 °C,"CN(CCc1cccc(OCC(=O)O)c1)c1cnc(-c2ccccc2)c(-c2ccccc2)n1 [Example 61, 2-[3-{2-[N-(5,6-diphenylpyrazin-2-yl)-N-methylamino]ethyl}phenoxy]acetic acid]"
16,182 to 184 °C,"CN(c1cnc(-c2ccccc2)c(-c2ccccc2)n1)C1CCc2c(OCC(=O)O)cccc21 (stereo not drawn) [Example 62, 4-(carboxymethoxy)-1-[N-(5,6-diphenylpyrazin-2-yl)-N-methylamino]indane]"
17,114 to 118 °C,"CN(CCCCCCC(=O)O)c1cnc(-c2ccccc2)c(-c2ccccc2)n1 [Example 65, 7-[N-(5,6-diphenylpyrazin-2-yl)-N-methylamino]heptanoic acid]"
18,116 to 117 °C,"CN(CCCCCCCC(=O)O)c1cnc(-c2ccccc2)c(-c2ccccc2)n1 [Example 66, 8-[N-(5,6-diphenylpyrazin-2-yl)-N-methylamino]octanoic acid]"
19,103 to 105 °C,"CN(CCCCCCCCC(=O)O)c1cnc(-c2ccccc2)c(-c2ccccc2)n1 [Example 67, 9-[N-(5,6-diphenylpyrazin-2-yl)-N-methylamino]nonanoic acid]"
20,159 to 160 °C,"CN(CCCCCC(=O)O)c1cnc(-c2ccccc2)c(-c2ccccc2)n1 [Example 68, 6-[N-(5,6-diphenylpyrazin-2-yl)-N-methylamino]hexanoic acid]"
21,148 to 150 °C,"CN(C/C=C\COCC(=O)O)c1cnc(-c2ccccc2)c(-c2ccccc2)n1 [Example 71, 2-{4-[N-(5,6-diphenylpyrazin-2-yl)-N-methylamino]-(Z)-2-buten-1-yloxy]acetic acid]"
22,128 to 130 °C,"CN(C/C=C/COCC(=O)O)c1cnc(-c2ccccc2)c(-c2ccccc2)n1 [Example 72, 2-{4-[N-(5,6-diphenylpyrazin-2-yl)-N-methylamino]-(E)-2-buten-1-yloxy]acetic acid]"
23,86 to 88 °C,"O=C(O)COCCCCSc1cnc(-c2ccccc2)c(-c2ccccc2)n1 [Example 76, 2-{4-[(5,6-diphenylpyrazin-2-yl)thio]butyloxy}acetic acid]"
24,212 to 213 °C,"CN(CC1CCc2c(cccc2OCC(=O)O)C1)c1cnc(-c2ccccc2)c(-c2ccccc2)n1 (stereo not drawn) [Example 77, 5-(carboxymethoxy)-2-{[N-(5,6-diphenylpyrazin-2-yl)-N-methylamino]methyl}-1,2,3,4-tetrahydronaphthalene]"
25,117 to 120 °C (dec.),"CC(C)N(CCCC[S+]([O-])CC(=O)O)c1cnc(-c2ccccc2)c(-c2ccccc2)n1 (stereo not drawn) [Example 79, 2-{4-[N-(5,6-diphenylpyrazin-2-yl)-N-isopropylamino]butylsulfinyl}acetic acid]"
26,183 to 185 °C,"CC(C)N(CCCCS(=O)(=O)CC(=O)O)c1cnc(-c2ccccc2)c(-c2ccccc2)n1 [Example 80, 2-{4-[N-(5,6-diphenylpyrazin-2-yl)-N-isopropylamino]butylsulfonyl}acetic acid]"
27,123 to 125 °C,"O=C(O)COCCCCS(=O)(=O)c1cnc(-c2ccccc2)c(-c2ccccc2)n1 [Example 82, 2-[4-(5,6-diphenylpyrazin-2-sulfonyl)butyloxy]acetic acid]"

# Tested on: ADP-induced platelet aggregation in human PRP
# Assay: Human platelet aggregation inhibition test
# Format: cell-based
# Conditions: ADP 1×10^−5 M
# Method: Human Platelet Aggregation Inhibition Test
# Blood collected from healthy human volunteers into aqueous trisodium citrate solution was centrifuged at 200×g for 10 minutes and the upper layer was recovered to obtain platelet-rich plasma (PRP). The residual blood containing trisodium citrate added therein was centrifuged at 1500×g for 10 minutes and the supernatant was collected as platelet-poor plasma (PPP). The number of platelets in the PRP was adjusted to about 300,000/μl by PPP. Platelet aggregation was measured by an aggregometer. 180 μl of PRP was added to cuvettes and incubated at 37° C. for one minute, and then 10 μl of test compound solution (prepared by dissolving a test compound with a 1.5-fold mole of a sodium hydroxide solution and diluting with water) was added and the mixture was further incubated for 2 minutes. Then, 10 μl of aqueous adenosine diphosphate (ADP) solution was added to adjust the final concentration as 1×10^−5 M and platelet aggregation was induced and observed for 7 minutes. Inhibition percentage of aggregation was calculated from the percentage of aggregation upon the addition of the test compound to the percentage of aggregation upon the addition of water in place of the test compound solution (control).
row,SMILES,pIC50
1,"CN(CCCCOCC(=O)O)c1ccc(-c2ccccc2)c(-c2ccccc2)n1 [Example 46, 2-{4-[N-(5,6-diphenylpyridin-2-yl)-N-methylamino]butyloxy}acetic acid sodium salt]",6.30
2,"CN(CCCCOCC(=O)O)c1ncc(-c2ccccc2)c(-c2ccccc2)n1 [Example 74, 2-{4-[N-(4,5-diphenylpyrimidin-2-yl)-N-methylamino]butyloxy}acetic acid]",6.10

# Tested on: ADP-induced platelet aggregation in monkey PRP
# Assay: Ex vivo platelet aggregation inhibition test in monkeys
# Parameters: species or system cynomolgus monkeys (Macaca fascicularis)
# Conditions: Macaca fascicularis, Platelet; oral 0.3 mg/kg, 2 h after administration; read-out: Inhibition percentage of platelet aggregation in monkeys
# Method: Ex Vivo Platelet Aggregation Inhibition Test in Monkeys
# The compound of Example 84 was orally administered to two cynomolgus monkeys (Macaca fascicularis, male, aged 3 to 5) at a dose of 0.3 or 1 mg/kg. Before the administration or 2, 4 and 8 hours after the administration, blood (each 4.5 ml) was collected using an injection cylinder containing aqueous 3.8% citric acid solution in the amount of 1/10 of the volume of blood to be collected. Blood containing citric acid solution was centrifuged at 200×g for 10 minutes and the upper layer was collected as PRP. Furthermore, the residual blood was centrifuged at 1500×g for 10 minutes and the supernatant was collected as PPP. 190 μl of PRP was added to a cuvette and incubated at 37° C. for one minute, and then 10 μl of ADP solution (5 to 30 μM) was added to induce platelet aggregation. The percentage of platelet aggregation was measured by an aggregometer (PM8C, Mebanix, Tokyo) using PPP as the blank and inhibition percentage of platelet aggregation was determined by comparing the percentage of aggregation before administration of the compound with the percentage of aggregation after administration of the compound according to the following equation. Inhibition percentage of Platelet Aggregation (%)=100−(The percentage of Aggregation after administration of compound)/(The percentage of Aggregation before administration of compound)×100
row,SMILES,inhibition at 0.3 mg/kg
1,"CC(C)N(CCCCOCC(=O)NS(C)(=O)=O)c1cnc(-c2ccccc2)c(-c2ccccc2)n1 [Example 84, 2-{4-[N-(5,6-diphenylpyrazin-2-yl)-N-isopropylamino]butyloxy}-N-(methylsulfonyl)acetamide]",28%

# Same assay, conditions: Macaca fascicularis, Platelet; oral 0.3 mg/kg, 4 h after administration; read-out: Inhibition percentage of platelet aggregation in monkeys
row,SMILES,inhibition at 0.3 mg/kg
1,"CC(C)N(CCCCOCC(=O)NS(C)(=O)=O)c1cnc(-c2ccccc2)c(-c2ccccc2)n1 [Example 84, 2-{4-[N-(5,6-diphenylpyrazin-2-yl)-N-isopropylamino]butyloxy}-N-(methylsulfonyl)acetamide]",34%

# Same assay, conditions: Macaca fascicularis, Platelet; oral 0.3 mg/kg, 8 h after administration; read-out: Inhibition percentage of platelet aggregation in monkeys
row,SMILES,inhibition at 0.3 mg/kg
1,"CC(C)N(CCCCOCC(=O)NS(C)(=O)=O)c1cnc(-c2ccccc2)c(-c2ccccc2)n1 [Example 84, 2-{4-[N-(5,6-diphenylpyrazin-2-yl)-N-isopropylamino]butyloxy}-N-(methylsulfonyl)acetamide]",19%

# Same assay, conditions: Macaca fascicularis, Platelet; oral 1 mg/kg, 2 h after administration; read-out: Inhibition percentage of platelet aggregation in monkeys
row,SMILES,inhibition at 1 mg/kg
1,"CC(C)N(CCCCOCC(=O)NS(C)(=O)=O)c1cnc(-c2ccccc2)c(-c2ccccc2)n1 [Example 84, 2-{4-[N-(5,6-diphenylpyrazin-2-yl)-N-isopropylamino]butyloxy}-N-(methylsulfonyl)acetamide]",63%

# Same assay, conditions: Macaca fascicularis, Platelet; oral 1 mg/kg, 4 h after administration; read-out: Inhibition percentage of platelet aggregation in monkeys
row,SMILES,inhibition at 1 mg/kg
1,"CC(C)N(CCCCOCC(=O)NS(C)(=O)=O)c1cnc(-c2ccccc2)c(-c2ccccc2)n1 [Example 84, 2-{4-[N-(5,6-diphenylpyrazin-2-yl)-N-isopropylamino]butyloxy}-N-(methylsulfonyl)acetamide]",40%

# Same assay, conditions: Macaca fascicularis, Platelet; oral 1 mg/kg, 8 h after administration; read-out: Inhibition percentage of platelet aggregation in monkeys
row,SMILES,inhibition at 1 mg/kg
1,"CC(C)N(CCCCOCC(=O)NS(C)(=O)=O)c1cnc(-c2ccccc2)c(-c2ccccc2)n1 [Example 84, 2-{4-[N-(5,6-diphenylpyrazin-2-yl)-N-isopropylamino]butyloxy}-N-(methylsulfonyl)acetamide]",52%

# Same assay, conditions: oral 0.3 or 1 mg/kg, 2 to 8 hours after administration
row,SMILES,ex vivo platelet aggregation inhibition (in words)
1,"CC(C)N(CCCCOCC(=O)NS(C)(=O)=O)c1cnc(-c2ccccc2)c(-c2ccccc2)n1 [Example 84, 2-{4-[N-(5,6-diphenylpyrazin-2-yl)-N-isopropylamino]butyloxy}-N-(methylsulfonyl)acetamide]",inhibits platelet aggregation persistently in a dose-dependent manner
